Results reported in the METLIN SMRT retention time set (Domingo-Almenara et al. 2019).

Test: gradient 5% acetonitrile 3 min, to 50% in 2 min, to 85% in 15 min, held 3 min, 100 µL/min
Details: column: Zorbax Extend-C18 2.1 x 50 mm; eluents: water / acetonitrile, 0.1% formic acid
In short: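 Values are retention times taken from adduct peaks that software picked and an analyst inspected. The pure standards were run as mixtures of ~100 molecules on HPLC linked to a quadrupole time-of-flight mass spectrometer, in positive and negative ionization mode. A Zorbax Extend-C18 column (2.1 × 50 mm, 1.8 μm) was used at 100 μL/min with water and acetonitrile, each including 0.1% formic acid.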

Row | SMILES | RP-LC retention time
1 | Cc1cc(NC(=O)Cc2csc(NC(=O)c3ncccn3)n2)no1 | 591 s
2 | O=C(NCCn1nnc2cc(C(=O)N3CCCC3)ccc21)Nc1ccccc1Br | 683 s
3 | CS(=O)(=O)Nc1cccc(NC(=O)c2cc(-c3cccs3)[nH]n2)c1 | 699 s
4 | N#CC[C@@H](C1CCCC1)n1cc(-c2ncnc3[nH]ccc23)cn1 | 689 s
5 | COc1ccc(C2Cn3nnc(-c4nc(-c5ccc(F)cc5)no4)c3CO2)cc1 (centres undefined) | 1130 s
6 | OC(C#Cc1ccccc1)(c1ccccc1)c1ccccc1 | 764 s
7 | O=C(CCc1nc2ccccc2s1)N1[C@H]2CC[C@@H]1c1cnc(-c3ccc(F)cc3)nc1C2 | 960 s
8 | O=C(NCc1nnnn1-c1ccc(Cl)cc1)c1ccc(S(=O)(=O)N2CCCC2)cc1 | 773 s
9 | Cc1ccc(NS(=O)(=O)c2cc3n(c2)CCCNC3=O)c(C)c1 | 678 s
10 | Cc1ccc(-c2c(C#N)c(N)nc(SCC(=O)NCc3ccccc3)c2C#N)cc1 | 844 s
11 | Cc1cc2c(c(=O)n(-c3ccccc3)c(=O)n2CC(=O)Nc2ccc(C(C)C)cc2)n1C | 975 s
12 | Cc1sc(-c2cc(C(F)(F)F)on2)cc1S(=O)(=O)N1CCN(c2ccc(Cl)cc2)CC1 | 1400 s
13 | O=C(NCC(c1cccnc1)c1c[nH]c2ccccc12)Nc1ccc(Br)cc1F (centres undefined) | 716 s
14 | COc1ccc2[nH]cc(CCNC(=O)Cn3c4ccccc4c4cnn(C)c(=O)c43)c2c1 | 767 s
15 | CCOc1ccccc1CN1C[C@@H](CO)[C@H](c2ccncc2)C1 | 620 s
16 | COc1ccc(NC(=O)CCc2c(C)nn(-c3cc(N(C)C)ncn3)c2C)cc1OC | 697 s
17 | O=C(c1ccc(-c2cccs2)nc1)N1CCCCC1 | 813 s
18 | CC(=O)/C=C1\C(=O)N(C)c2ccccc21 | 858 s
19 | Cc1[nH]c(-c2ccc(F)cc2)cc1C(=O)N1CC=C(c2ccccc2)CC1 | 1030 s
20 | Cc1ccc(N2C(=O)C3N=NN(Cc4nc(-c5cccc(Br)c5)no4)C3C2=O)cc1C (centres undefined) | 1120 s
21 | Cc1[nH]c(C)c(S(=O)(=O)N2CCC(C(=O)NCc3cccs3)CC2)c1C(=O)N1CCCC1 | 664 s
22 | CCOC(=O)C1CCN(C2=NS(=O)(=O)c3ccccc32)CC1 | 739 s
23 | CCn1nnc2ccc(-c3noc(-c4ccc(OC)c(OC)c4)n3)cc21 | 963 s

Row | SMILES | RP-LC retention time
24 | O=C(Nc1ccc(F)cc1)N1CCC(N2CC(F)(F)C[C@H]2COCC2CC2)CC1 | 699 s
25 | CNC(=O)C1CCCN(c2nc3ncn(CC(=O)NCC4CCCO4)c(=O)c3s2)C1 (centres undefined) | 569 s
26 | Cc1ccc2nc(C(=O)NCc3ccc(Cl)cc3)cn2c1 | 718 s
27 | CC(C)(C)C(=O)Nc1nc(CC(=O)NCCC2=CCCCC2)cs1 | 814 s
28 | CNC(=O)C1CCCN(c2nc3ncn(CC(=O)Nc4ccccc4C(=O)OC)c(=O)c3s2)C1 (centres undefined) | 649 s
29 | COC(=O)c1cc(C2CC2)nc2c1c(=O)n(Cc1ccc(F)cc1)c(=O)n2C | 1090 s
30 | COC(=O)CNC(=O)N1CCCN(c2nc3cc(F)ccc3n3cccc23)CC1 | 612 s
31 | O=C(Nc1ccc(F)c(Cl)c1)Nc1nccn(-c2ccc(F)cc2)c1=O | 1010 s
32 | O=C(NCC1CC1)C1CCN(C(=O)c2ncn3c2COC(c2ccccc2)C3)CC1 (centres undefined) | 681 s
33 | Cc1ccc(S(=O)(=O)c2nc(SCC(=O)N3CCCCC3)sc2Cl)cc1 | 910 s
34 | COc1cc(NC(=O)N2CCN(c3cc(C)nc(N4CCCC4)n3)CC2)cc(OC)c1 | 676 s
35 | O=C(c1ccc(F)cc1)N1CCC(n2c(-c3ccco3)nc3cccnc32)C1 (centres undefined) | 689 s
36 | CCC1Oc2ccc(S(=O)(=O)N3CCC(C(=O)Nc4cc(C)ccc4C)CC3)cc2NC1=O (centres undefined) | 837 s
37 | O=C(Nc1ccc(N2CCN(c3ccccc3)C2=O)nc1)C1CCC1 | 844 s
38 | CCN1CCN(CCNC(=O)CCCn2c3ccccc3c3cnn(C)c(=O)c32)CC1 | 579 s
39 | CC1CCN(C(=O)c2cc(S(=O)(=O)N3CCCC(C(=O)Nc4nccs4)C3)c[nH]2)CC1 (centres undefined) | 756 s
40 | CCOc1ccc(NC(=O)CN2C(=O)C3CCCCN3c3ccc(S(=O)(=O)N(C)C)cc32)cc1 (centres undefined) | 945 s
41 | CCC(=O)N1CCc2cc(N3CC(C(=O)NCc4ccco4)CC3=O)ccc21 (centres undefined) | 667 s
42 | CC(C)n1cnc(S(=O)(=O)N2CCCC(C(=O)Nc3cccc4c3CCCC4)C2)c1 (centres undefined) | 865 s
43 | O=S(=O)(Cc1ccccc1Cl)N(CCc1ccccc1)Cc1ccccn1 | 950 s
44 | COc1ccc2c(c1)C1(CCN(C(=O)c3ccc(F)c(F)c3)C1)C(=O)N2C (centres undefined) | 634 s
45 | COc1ccc(NC(=O)Nc2cccc(-c3ccc(N4CCOCC4)nn3)c2)cc1F | 675 s
46 | Cc1cccc(C#Cc2ccccc2)n1 | 833 s

Row | SMILES | RP-LC retention time
47 | CCOC(=O)c1c(C)n(Cc2ccco2)c2ccc(OCC)cc12 | 617 s
48 | Cc1cc(N2CCN(S(=O)(=O)c3ccc4cccc5c4c3CC5)CC2)nc(NC2CCCCC2)n1 | 955 s
49 | CN(CCc1noc(COc2ccccc2)n1)C(=O)Nc1cccc(Br)c1 | 964 s
50 | Cc1cccc(-n2c(=O)c3c(cc(C)n3C)n(CC(=O)Nc3ccc(C)cc3C)c2=O)c1 | 912 s
51 | O=C(NCc1ccccc1Cl)c1coc(NC(=O)c2cnccn2)n1 | 643 s
52 | Cc1c(S(=O)(=O)NCc2ccc3c(c2)CCN3C(=O)CC(C)C)cnn1C(F)F | 911 s
53 | CC(=O)N1c2ccc(S(=O)(=O)N3CCCCCC3)cc2CC1C(=O)NCCN(C)C (centres undefined) | 637 s
54 | COc1ccccc1C(=O)N1CCC(c2cc3n(n2)CCCNC3=O)CC1 | 596 s
55 | CCC1Oc2ccc(S(=O)(=O)N3CCC(C(=O)Nc4ccccc4)CC3)cc2NC1=O (centres undefined) | 794 s
56 | Cc1ccc(NC(=O)N2CCc3nc[nH]c3C2)c(C)c1 | 578 s
57 | CCOC(=O)C1CCN(C(=O)C2CCCN(c3ncnc4c3nc3n4CCCCC3)C2)CC1 (centres undefined) | 726 s
58 | CC(=O)Nc1ccc(-c2nc3ccc(C)cc3s2)cc1 | 851 s
59 | COC(=O)C1=CN(c2ccccc2OC)c2cc(F)ccc2S1(=O)=O | 860 s
60 | COc1ccc(NC(=O)N2c3ccccc3CC2c2nc(C3CC3)no2)c(C)c1 (centres undefined) | 978 s
61 | CCS(=O)(=O)N1CC(=O)N(c2ccc(C(C)C)cc2)C(C)(C(=O)NCc2ccc(F)cc2)C1 (centres undefined) | 872 s
62 | Cc1cc(C2CCCN2C(=O)Nc2ccccc2Cl)on1 (centres undefined) | 830 s
63 | CCOC(=O)C1CCC(CNC(=O)Nc2ccc(-c3nc(-c4ccc(C)cc4C)co3)cc2)CC1 (centres undefined) | 1240 s
64 | CC(C)CNC(=O)N1CC(Oc2ccc(-c3nc(-c4ccccc4)no3)cc2)C1 | 1060 s
65 | CC(C)COC(=O)Nc1nc(CC(=O)Nc2ccccc2C(N)=O)cs1 | 703 s
66 | O=C(Cn1nc(Cc2ccncc2)c2ccccc2c1=O)NCCCN1CCc2ccccc2C1 | 567 s
67 | CCNC(=O)C1CCCN(S(=O)(=O)c2ccc(OC)c(OC)c2)C1 (centres undefined) | 684 s
68 | COCc1nnc2n1CCC(NC(=O)c1ccoc1)CC2 (centres undefined) | 561 s
69 | CCOC(=O)c1cnn2c(SC)ncnc12 | 776 s

Row | SMILES | RP-LC retention time
70 | COc1cccc(-n2ccn3cc(-c4cccc(Cl)c4)nc3c2=O)c1 | 837 s
71 | O=C(CCn1nnc2cc(-c3noc(COc4ccccc4)n3)ccc21)N1CCCCCC1 | 1000 s
72 | Cc1c(C(=O)N2CCN(C)CC2)cc(-c2ccccc2)n1C | 612 s
73 | CCCn1cnc2cc(CNC(=O)CCC3CCCC3)ccc21 | 649 s
74 | Cc1ccc(-c2nc3cnccn3c2NCCC(=O)NC(C)c2ccccn2)cc1 (centres undefined) | 586 s
75 | COCCCNC(=O)c1ccc(-n2nc(C)c3c2CC(C)(C)CC3=O)cc1 | 711 s
76 | COc1ccc2cccc(C(=N)c3ccc(C)c4c3CCC4)c2c1 | 747 s
77 | Cc1noc(C)c1-c1ccc(S(=O)(=O)NCc2ccc(F)cc2)cc1 | 942 s
78 | Cc1nc(N)nc(N)c1-c1ccc(Cl)c(Cl)c1 | 642 s
79 | COc1ccc(C)cc1NS(=O)(=O)c1ccc2c(c1)C(=O)N(C)c1ncccc1O2 | 933 s
80 | Clc1ccc(-c2cn3cccnc3n2)cc1 | 662 s
81 | Cc1ccc(CNC(=O)CN2C(=O)C3CCCCN3c3ccc(S(=O)(=O)N(C)C)cc32)cc1 (centres undefined) | 922 s
82 | Cc1ccc(-c2ccc(N3CCCC(C(=O)Nc4ccc5c(c4)OCO5)C3)nn2)cc1 (centres undefined) | 753 s
83 | Cc1ccc(-c2noc(-c3ccccc3S(=O)(=O)NCCC(C)C)n2)cc1 | 1330 s
84 | CC(C)(C)NC(=O)NCCC1CCN(S(=O)(=O)c2ccccc2)CC1 | 822 s
85 | CN1CCC(OC2CCN(C(=O)c3ccc(Cl)cc3)CC2)CC1 | 601 s
86 | CNC(=O)c1cc(C)nc2ccc(C)cc12 | 561 s
87 | COC(=O)c1cnc2nc(C)ccc2c1Nc1ccc(Br)cc1C | 732 s
88 | O=C1CCc2cc(S(=O)(=O)NCc3ccccc3Cl)cc3c2N1CCC3 | 863 s
89 | COC(=O)c1ccccc1NC(=O)CSc1nnc2c3cc(-c4ccc(F)cc4)nn3ccn12 | 957 s
